Values of other authors in publication PMC7766159, “Novel Psychoactive Phenethylamines: Impact on Genetic Material” (International Journal of Molecular Sciences, 2020).

Tested on: primary rat hepatocyte
Parameters: method as in PMID 31468101
Conditions: after 24 h; cited from earlier work

CNC(C)C(=O)c1cccc(C)c1 (stereo not shown) [Metaphedrone, 3-methylmethcathinone]
concentration mediating oxidative stress: 10 µM
